The values that follow come from patent US4826856A, “Calcium antagonistic dihydropyridine derivative” (Yason s.r.l., priority 1985, dated 1989).

Broadly, the EC50 is the concentration needed to bring the measured effect to its halfway point. The term AUC denotes the area under the concentration-time curve, a measure of exposure.

Series [1] concerns Sprague-Dawley rats. Kind of series: Ventricular arrhythmias after re-circulation. The format is in vivo, rat. The following applies: 5 mg/kg p.o. The method, then: (§1) Ventricular arrhythmias after coronary artery ligation in the acute phase or during the period of re-circulation
(§2) Sprague-Dawley rats were subjected to ligation of the left coronary artery according to the method of Clark et al. in J. Pharmacol. Methods 3, 357-368, 1980. The drugs were administered by gastric tube 30 minutes before the ligation. By means of a continuous electrocardiographic recording, the ventricular arrhythmias such as ectopic beats (EB), ventricular tachycardia (VT), ventricular fibrillation (VF) for 30 minutes after ligation, were recorded.

For the next series, the system named is post-oligoemic rats. The series can be described thus: Transient cerebral oligoemia in the rat, cerebral water, K+ and Ca++ content. The format is in vivo. To be noted: for overall activity in cerebral oligoemia: p.o. As for the experimental part:
Transient cerebral oligoemia in the rat
The method described by Borzeix in Circulation et Metabolisme du Cerveau 1, 63-79, John Libbey Eurotext Publ. […] The animals were treated by the oral route with the tested drugs twice a day, starting one hour after the ligation and for 3 days, in scalar doses.
The last dose, at the 71th hour after the occlusion, preceeded by one hour the sacrifice of the animal, whose brain was subjected to the determination of the H2 O, K^+ and Ca^++ content.

A further series deals with Rat thoracic aorta. Kind of series: Inhibition of the contractile response of rat thoracic aorta strips in vitro. To be noted: for EC50: Rattus norvegicus. As for the experimental part: 1. Inhibition of the contractile response of arterial vessels in vitro
Aortic strips (3 mm wide) were dissected from rat thoracic aorta and bathed in a Krebs-Henseleit solution bubbled with O2 :CO2 (95:5) at 38° C., under a tension of 2 g. After a 30-minutes stabilization period, a contraction was induced by adding either KCl (118 mM) or noradrenaline (10^-5 M.l^-1) in a calcium-free medium (Na EDTA 0.1 mM.l^-1) or noradrenaline (10^-5 M.l^-1) after readmission of calcium (CaCl2 1.25 mM.l^-1).

For series [2], the system named is Sprague-Dawley rats. The series can be described thus: Ventricular arrhythmias during coronary artery ligation period. The format is in vivo, rat. The arrangement: EBs, mean value of indices + SEM / VT, mean value of indices + SEM / VF, mean value of indices + SEM: scale not given here. As for the experimental part:
as §1, §2

The nature of series [3]: Pharmacokinetics and bioavailability in dogs. It is filed as in vivo. The following applies: in vivo, 10 mg/kg, dog. The method, then: YS 201 hydrochloride was intravenously and orally administered to dogs at 1 and 10 mg/kg respectively.
The test system of a further series is SHR aorta. The series can be described thus: SHR aorta pretreatment study (PE or K+ contraction). The arrangement: species or system spontaneously hypertensive rat (SHR). As for the experimental part:
1.3. SHR aorta--Pretreatment study
SHR aorta were treated with either PE(1 μM) or high potassium (K^+, 80 mM) and the resulting contraction was allowed to sustain for 15 Minutes. After wash out and equilibration (1 hour), tissues were pretreated with a single concentration of either YS 201 or nifedipine. After a 30-minutes equilibration time, tissues were again challenged with either PE or K^+ and the resultant contraction compared to the initial contraction. Contractile effect was measured at 15 minutes after the addition of the agonist (PE or K^+).

[4] abbreviates: noradrenaline 10^-5 M.l^-1, calcium-free medium, read-out: EC50, NA - Ca++ contraction, rat aorta.
The mark [5] stands for this setting: noradrenaline 10^-5 M.l^-1 after readmission of calcium (CaCl2 1.25 mM.l^-1), read-out: EC50, NA + Ca++ contraction, rat aorta.

Like-named read-outs stand apart in the source and are kept apart here.

On to `COc1ccc([C@@H]2Sc3ccccc3N(CCN(C)C)C(=O)[C@@H]2OC(C)=O)cc1` [diltiazem, reference compound], for which, in the series on Sprague-Dawley rats [1], the Death rate % turned out to be 27.3%; the “EBs, mean value of indices + SEM” value was 68.9 ± 32.12; the VF % is on record as 45.5%; the “VF, mean value of indices + SEM” value is recorded as 8.8 ± 4.64. The “VT, mean value of indices + SEM” value with Sprague-Dawley rats [1] was determined as 4.2 ± 2.54. Also, the “overall activity in cerebral oligoemia” value with post-oligoemic rats is on record as “good activity”.
As for `COC(=O)C1=C(C)NC(C)=C(C(=O)OCCN(C)Cc2ccccc2)C1c1cccc([N+](=O)[O-])c1` (stereo not drawn) [nicardipine], in the series with Rat thoracic aorta (setting [4]), the concentration giving a half-maximal response (EC50) amounted to 100 µM. In the series with Sprague-Dawley rats [2] (0.5 mg/kg p.o.), the Death rate % was determined as 0%; the “EBs, mean value of indices + SEM” value is listed as 10.9; the VF % turned out to be 66.7%; the “VF, mean value of indices + SEM” value was 2.5. In the series on Sprague-Dawley rats [2] (0.5 mg/kg p.o.), the “VT, mean value of indices + SEM” value stood at 2.5. In addition, in the series on Sprague-Dawley rats [2] (1.0 mg/kg p.o.), the Death rate % is given as 33.3%; the “EBs, mean value of indices + SEM” value is listed as 22.0; the VF % worked out at 100%; the “VF, mean value of indices + SEM” value worked out at 0.9. Moreover, the “VT, mean value of indices + SEM” value with Sprague-Dawley rats [2] (1.0 mg/kg p.o.) turned out to be 0.5. Further, in the series on Sprague-Dawley rats [2] (2.0 mg/kg p.o.), the Death rate % turned out to be 25.0%; the “EBs, mean value of indices + SEM” value is recorded as 31.9; the VF % was found to be 75%; the “VF, mean value of indices + SEM” value was found to be 1.2. The “VT, mean value of indices + SEM” value with Sprague-Dawley rats [2] (2.0 mg/kg p.o.) was determined as 0.7. For the same compound, in the series with post-oligoemic rats (1 mg/kg p.o.), the “Cerebral content of Ca++” value is reported as 18.4 ± 7.04 mmol · kg^-1 dry weig and the “Cerebral content of K+” value stood at 460.0 ± 18.96 mmol · kg^-1 dry weig. Moreover, in the series with post-oligoemic rats (3 mg/kg p.o.), the “Cerebral content of Ca++” value was found to be 19.4 ± 5.0 mmol · kg^-1 dry weig and the “Cerebral content of H2O” value was found to be 79.2 ± 0.42%. For the same compound, the “overall activity in cerebral oligoemia” value in the series on post-oligoemic rats is given as “fail”. For the same compound, in series [3] (po, same dose, read-out: AUC (converted)), the AUC is 1280 ng·h/mL. Moreover, the Cmax in series [3] (oral, read-out: maximum concentration (Cmax)) came to 220 ng/mL.
Take `COC(=O)C1=C(C)NC(C)=C(C(=O)OC)C1c1ccccc1[N+](=O)[O-]` [nifedipine]: the “inhibition of K+-induced contractions, SHR aortic strips” value in the series on SHR aorta is “extremely potent inhibitors”. For the same compound, in the series on Sprague-Dawley rats [2] (1.0 mg/kg p.o.), the Death rate % is 0%; the “EBs, mean value of indices + SEM” value amounted to 70.0 ± 24.72; the VF % turned out to be 80%; the “VF, mean value of indices + SEM” value stood at 1.1 ± 0.55. Further, the “VT, mean value of indices + SEM” value with Sprague-Dawley rats [2] (1.0 mg/kg p.o.) stood at 4.4 ± 2.22. Further, in the series on Sprague-Dawley rats [2] (1.5 mg/kg p.o.), the Death rate % was found to be 20.0%; the “EBs, mean value of indices + SEM” value is on record as 40.5 ± 20.19; the VF % was 60%; the “VF, mean value of indices + SEM” value worked out at 1.7 ± 0.77. In the series on Sprague-Dawley rats [2] (1.5 mg/kg p.o.), the “VT, mean value of indices + SEM” value turned out to be 2.1 ± 1.75.
In the case of `COCCOC(=O)C1=C(C)NC(C)=C(C(=O)OC(C)C)C1c1cccc([N+](=O)[O-])c1` (stereo not drawn) [nimodipine], the EC50 in the series on Rat thoracic aorta (setting [4]) and in the series with Rat thoracic aorta (setting [5]) was 100 µM throughout. In the series with post-oligoemic rats (0.5 mg/kg p.o.), the “Cerebral content of K+” value turned out to be 442.0 ± 22.40 mmol · kg^-1 dry weig. For the same compound, the “Cerebral content of H2O” value in the series with post-oligoemic rats (1.5 mg/kg p.o.) is given as 79.3 ± 0.40%. The “overall activity in cerebral oligoemia” value in the series on post-oligoemic rats was “fail”.
As to `CCOC(=O)C1=C(C)NC(C)=C(C(=O)OC)C1c1cccc([N+](=O)[O-])c1` (stereo not drawn) [nitrendipine], the EC50 in the series with Rat thoracic aorta (setting [5]) stood at 100 µM. Further, the “activity on contractions induced by noradrenaline in Ca++-free medium vs YS 201” value in the series on Rat thoracic aorta (rat aorta) was “slightly more active than YS 201”.
As for `COc1ccc(CCN(C)CCCC(C#N)(c2ccc(OC)c(OC)c2)C(C)C)cc1OC` (stereo not drawn) [verapamil], the “overall activity in cerebral oligoemia” value in the series on post-oligoemic rats is “good activity”.
